Data taken from patent US4254128A, “2-Adamantyl hydrazines and biocidal compositions thereof” (Teva Pharmaceutical Industries Ltd., priority 1977, dated 1981).
Counter-ions that a name gives are not always drawn.

Tests used:
[1] = test system: 4 mycoplasma (M. gallisepticum, M. capricolum, M. hominis, A. laidlawii); test: organism not typed; assay type: cell-based; conditions: read-out: 50% inhibition of growth
L. tropica promastigotes = test: Anti leishmania test, promastigotes in vitro; assay type: cell-based; conditions: 27° C.
Procedure: (§1) b. promastigotes in Mc Coy's medium in vitro at 27° C.
+++=No viable parasites after 24 hours
++=No viable parasites after 48 hours
+=No viable parasites after 72 hours
±=No viable parasites after 96 hours p2 -=viable parasites after 120 hours.

Leishmania = test: Anti leishmania tests, summary; assay type: cell-based, L. tropica; conditions: summary in words
Procedure: (§2) a. amastigotes in peritoneal exudate cells in Mc Coy's medium in vitro at 37° C.
as §1

L. tropica amastigotes = test: Anti leishmania test, amastigotes in peritoneal exudate cells in vitro; assay type: cell-based; conditions: 37° C.
Procedure: as §2
+++=clearance of all parasites in 24 hours
++=clearance of all parasites in 48 hours
+=clearance of all parasites in 72 hours
±=Partial clearance of parasites in 72 hours or more
-=No activity against parasites.

albino rats = test: Antiparkinson activity (catalepsy produced by haloperidol); assay type: in vivo, Male Charles River albino rats; conditions: for antiparkinson activity: summary in words
Procedure: Male Charles River albino rats, weighing 200-250 g, were used. Catalepsy was produced by haloperidol, 5 mg/kg i.p. The animals were placed with their front paws on a horizontal bar, about 10 cm above the ground, and animals were considered cataleptic if not changing posture for at least 30 sec. Cataleptic animals were injected i.p. with one of the drugs at a dose of 40-80 mg/kg. Catalepsy was estimated again at the intervals indicated.

HSV-1 (Herpes Simplex) = test: Inhibition test on HSV replication; assay type: cell-based; conditions: Human alphaherpesvirus 1, BSC-1 cells, 10 PFU/cell; for inhibition at 50 µg/mL: 50 μg/ml, read-out: % Inhibition; for inhibition at 100 µg/mL: 100 μg/ml; for inhibition at 25 µg/mL: 25 μg/ml
Text: BSC-1 (Green monkey kidney)
**% Inhibition of control infected for some time with same virus PFV with […]

[2] = Toxic limit in the HSV replication test; conditions: monkey, bsc-1 cells
[3] = test system: Leptospira canicola Kipod 146; test: Anti leptospiral activity (minimal inhibition concentration); assay type: cell-based; conditions: for MIC: Leptospira interrogans, KIPOD146, 240 h; for anti leptospiral activity: summary in words
Procedure: The tests were carried out under the following conditions:
Leptospira: Leptospira canicola Kipod 146
Inoculum: 1-10^5 cells/ml
Incubation time: 10 days, 28° C.
Evaluation: Direct count in dark field microscopy after 4,7 and 10 days.
2 Minimal+0.5% albumin (Pentex)
3 Korthof rich medium with 8% serum.
4 Korthof rich medium with 2% serum.

albino mice [4] = test: Stereotyped behaviour in mice; assay type: in vivo, Male ICR albino mice; parameters: stereotyped behaviour score / Total Score / Mean Score: scale not given here; conditions: for stereotyped behaviour score / Mean Score / Total Score: 50 mg/kg i.p.; for Mean Score: mean of 4 mice; for stereotyped behaviour activity: summary in words
Procedure: Male ICR albino mice weighing 25-30 g were put in cages with a metal grid floor, 4 in each cage. Drugs were injected intraperitoneally and stereotyped behaviour (sniffing, biting, repetitive head movement) was evaluated every 30 min.

albino mice [5] = test: Stereotyped behaviour in mice; assay type: in vivo, Male ICR albino mice; parameters: scale not given here; conditions: 50 mg/kg i.p.

c1ccc(CN2CCN(NC3C4CC5CC(C4)CC3C5)CC2)cc1 (stereo not shown) [Example 16, 1-(2'-Adamantylamino)-4-benzylpiperazine dihydrochloridemonohydrate]
IC50 [1]: 5 to 30 µg/mL
Leishmania promastigote activity score (L. tropica promastigotes; 10 μg): +++ (No viable parasites after 24 hours)
Leishmania promastigote activity score (L. tropica promastigotes; 100 μg): +++ (No viable parasites after 24 hours)
activity against Leishmania (Leishmania): active

O=C(O)CNNC1C2CC3CC(C2)CC1C3 (stereo not shown) [Example 36, [2-(2'-adamantyl)hydrazino]acetic acid hydrochloride]
Leishmania amastigote activity score (L. tropica amastigotes; 100 μg): ++ (clearance of all parasites in 48 hours)
Leishmania promastigote activity score (L. tropica promastigotes; 100 μg): ++ (No viable parasites after 48 hours)
activity against Leishmania (Leishmania): active
anticataleptic effect (albino rats; 80 mg/kg i.p., rat 1): 2/4
anticataleptic effect (albino rats; 80 mg/kg i.p., rat 2): 1/4
anticataleptic effect (albino rats; 80 mg/kg i.p., rat 3): 3/4
anticataleptic effect (albino rats; 80 mg/kg i.p., rat 4): 2/4
anticataleptic effect (albino rats; 80 mg/kg i.p., rat 5): 0/4
antiparkinson activity (albino rats): active
inhibition at 50 µg/mL (HSV-1 (Herpes Simplex)): 0%
inhibition at 100 µg/mL (HSV-1 (Herpes Simplex)): 0%
inhibition at 200 µg/mL (HSV-1 (Herpes Simplex); 200 μg/ml): 98%
MNTC [2]: 200 µg/mL

CN(N)C1C2CC3CC(C2)CC1C3 (stereo not shown) [Example 27, 1-(2'-Adamantyl)-1-methylhydrazine hydrochloride]
MIC ([3]; Korthof + 8% serum): 50 µg/mL
MIC ([3]; minimal + Pentex (0.5% albumin)): 6.25 µg/mL
MIC ([3]; minimal medium): 3.12 µg/mL
anti leptospiral activity [3]: active
Leishmania amastigote activity score (L. tropica amastigotes; 10 μg): ± (Partial clearance of parasites in 72 hours or more)
Leishmania amastigote activity score (L. tropica amastigotes; 100 μg): ++ (clearance of all parasites in 48 hours)
Leishmania promastigote activity score (L. tropica promastigotes; 100 μg): +++ (No viable parasites after 24 hours)
activity against Leishmania (Leishmania): active
anticataleptic effect (albino rats; 80 mg/kg i.p., rat 1): 3/4
anticataleptic effect (albino rats; 80 mg/kg i.p., rat 2): 1/4
anticataleptic effect (albino rats; 80 mg/kg i.p., rat 3): 2/4
anticataleptic effect (albino rats; 80 mg/kg i.p., rat 4): 3/4
anticataleptic effect (albino rats; 80 mg/kg i.p., rat 5): 4/4
antiparkinson activity (albino rats): active
stereotyped behaviour score (albino mice [4]; 0 min, mouse 1): 0
stereotyped behaviour score (albino mice [4]; 0 min, mouse 2): 0
stereotyped behaviour score (albino mice [4]; 0 min, mouse 3): 0
stereotyped behaviour score (albino mice [4]; 0 min, mouse 4): 0
stereotyped behaviour score (albino mice [4]; 30 min, mouse 1): 0
stereotyped behaviour score (albino mice [4]; 30 min, mouse 2): 0
stereotyped behaviour score (albino mice [4]; 30 min, mouse 3): 1
stereotyped behaviour score (albino mice [4]; 30 min, mouse 4): 0
stereotyped behaviour score (albino mice [4]; 45 min, mouse 3): 1
stereotyped behaviour score (albino mice [4]; 45 min, mouse 4): 1
stereotyped behaviour score (albino mice [4]; 60 min, mouse 1): 2
stereotyped behaviour score (albino mice [4]; 60 min, mouse 2): 2
stereotyped behaviour score (albino mice [4]; 60 min, mouse 3): 2
stereotyped behaviour score (albino mice [4]; 60 min, mouse 4): 2
stereotyped behaviour score (albino mice [4]; 90 min, mouse 1): 2
stereotyped behaviour score (albino mice [4]; 90 min, mouse 2): 2
stereotyped behaviour score (albino mice [4]; 90 min, mouse 3): 2
stereotyped behaviour score (albino mice [4]; 90 min, mouse 4): 2
stereotyped behaviour score (albino mice [4]; 120 min, mouse 1): 1
stereotyped behaviour score (albino mice [4]; 120 min, mouse 2): 1
stereotyped behaviour score (albino mice [4]; 120 min, mouse 3): 0
stereotyped behaviour score (albino mice [4]; 120 min, mouse 4): 0
stereotyped behaviour score (albino mice [4]; 135 min, mouse 1): 1
stereotyped behaviour score (albino mice [4]; 135 min, mouse 2): 1
stereotyped behaviour score (albino mice [4]; 150 min, mouse 1): 1
stereotyped behaviour score (albino mice [4]; 150 min, mouse 2): 1
stereotyped behaviour score (albino mice [4]; 150 min, mouse 3): 0
stereotyped behaviour score (albino mice [4]; 150 min, mouse 4): 0
stereotyped behaviour score (albino mice [4]; 180 min, mouse 1): 0
stereotyped behaviour score (albino mice [4]; 180 min, mouse 2): 0
stereotyped behaviour score (albino mice [4]; 180 min, mouse 3): 0
stereotyped behaviour score (albino mice [4]; 180 min, mouse 4): 0
stereotyped behaviour score (albino mice [4]; 210 min, mouse 1): 0
stereotyped behaviour score (albino mice [4]; 210 min, mouse 2): 1
stereotyped behaviour score (albino mice [4]; 210 min, mouse 3): 0
stereotyped behaviour score (albino mice [4]; 210 min, mouse 4): 0
stereotyped behaviour score (albino mice [4]; 240 min, mouse 1): 0
stereotyped behaviour score (albino mice [4]; 240 min, mouse 2): 0
stereotyped behaviour score (albino mice [4]; 240 min, mouse 3): 0
stereotyped behaviour score (albino mice [4]; 240 min, mouse 4): 0
Mean Score (albino mice [4]): 6.5
Total Score (albino mice [4]; mouse 1): 7
Total Score (albino mice [4]; mouse 2): 9
Total Score (albino mice [4]; mouse 3): 6
Total Score (albino mice [4]; mouse 4): 5
stereotyped behaviour activity (albino mice [4]): active
inhibition at 25 µg/mL (HSV-1 (Herpes Simplex)): 46%
inhibition at 50 µg/mL (HSV-1 (Herpes Simplex)): 81%
inhibition at 100 µg/mL (HSV-1 (Herpes Simplex)): 100%
stereotyped behaviour score (albino mice [5]; 45 min, mouse 1): 0
stereotyped behaviour score (albino mice [5]; 45 min, mouse 2): 1
stereotyped behaviour score (albino mice [5]; 135 min, mouse 3): 0
stereotyped behaviour score (albino mice [5]; 135 min, mouse 4): 0
MNTC [2]: 100 µg/mL

c1ccc(CCNNC2C3CC4CC(C3)CC2C4)cc1 (stereo not shown) [Example 2, 1-(2'-Adamantyl)-2-phenethylhydrazine hydrochloride]
IC50 [1]: 5 to 30 µg/mL

C1CCN(NC2C3CC4CC(C3)CC2C4)CC1 (stereo not shown) [Example 10, 1-(2'-Adamantylamino)piperidine hydrochloride]
MIC ([3]; Korthof + 8% serum): 100 µg/mL
MIC ([3]; minimal medium): 12.5 µg/mL
anti leptospiral activity [3]: active
IC50 [1]: 5 to 30 µg/mL
Mean maximal effect (albino rats; 80 mg/kg i.p., mean of 5 rats): 1/4
anticataleptic effect (albino rats; 80 mg/kg i.p., rat 1): 0/4
anticataleptic effect (albino rats; 80 mg/kg i.p., rat 2): 1/4
anticataleptic effect (albino rats; 80 mg/kg i.p., rat 3): 0/4
anticataleptic effect (albino rats; 80 mg/kg i.p., rat 4): 1/4
anticataleptic effect (albino rats; 80 mg/kg i.p., rat 5): 3/4
antiparkinson activity (albino rats): active
stereotyped behaviour score (albino mice [4]; 0 min, mouse 1): 0
stereotyped behaviour score (albino mice [4]; 0 min, mouse 2): 0
stereotyped behaviour score (albino mice [4]; 0 min, mouse 3): 0
stereotyped behaviour score (albino mice [4]; 0 min, mouse 4): 0
stereotyped behaviour score (albino mice [4]; 30 min, mouse 1): 1
stereotyped behaviour score (albino mice [4]; 30 min, mouse 2): 1
stereotyped behaviour score (albino mice [4]; 30 min, mouse 3): 1
stereotyped behaviour score (albino mice [4]; 30 min, mouse 4): 1
stereotyped behaviour score (albino mice [4]; 45 min, mouse 3): 1
stereotyped behaviour score (albino mice [4]; 45 min, mouse 4): 0
stereotyped behaviour score (albino mice [4]; 60 min, mouse 1): 1
stereotyped behaviour score (albino mice [4]; 60 min, mouse 2): 1
stereotyped behaviour score (albino mice [4]; 60 min, mouse 3): 1
stereotyped behaviour score (albino mice [4]; 60 min, mouse 4): 1
stereotyped behaviour score (albino mice [4]; 90 min, mouse 1): 1
stereotyped behaviour score (albino mice [4]; 90 min, mouse 2): 1
stereotyped behaviour score (albino mice [4]; 90 min, mouse 3): 1
stereotyped behaviour score (albino mice [4]; 90 min, mouse 4): 1
stereotyped behaviour score (albino mice [4]; 120 min, mouse 1): 0
stereotyped behaviour score (albino mice [4]; 120 min, mouse 2): 0
stereotyped behaviour score (albino mice [4]; 120 min, mouse 3): 0
stereotyped behaviour score (albino mice [4]; 120 min, mouse 4): 0
stereotyped behaviour score (albino mice [4]; 135 min, mouse 1): 0
stereotyped behaviour score (albino mice [4]; 135 min, mouse 2): 0
stereotyped behaviour score (albino mice [4]; 150 min, mouse 1): 0
stereotyped behaviour score (albino mice [4]; 150 min, mouse 2): 0
stereotyped behaviour score (albino mice [4]; 150 min, mouse 3): 0
stereotyped behaviour score (albino mice [4]; 150 min, mouse 4): 0
stereotyped behaviour score (albino mice [4]; 180 min, mouse 1): 1
stereotyped behaviour score (albino mice [4]; 180 min, mouse 2): 1
stereotyped behaviour score (albino mice [4]; 180 min, mouse 3): 0
stereotyped behaviour score (albino mice [4]; 180 min, mouse 4): 0
stereotyped behaviour score (albino mice [4]; 210 min, mouse 1): 1
stereotyped behaviour score (albino mice [4]; 210 min, mouse 2): 0
stereotyped behaviour score (albino mice [4]; 210 min, mouse 3): 0
stereotyped behaviour score (albino mice [4]; 210 min, mouse 4): 0
stereotyped behaviour score (albino mice [4]; 240 min, mouse 1): 0
stereotyped behaviour score (albino mice [4]; 240 min, mouse 2): 0
stereotyped behaviour score (albino mice [4]; 240 min, mouse 3): 0
stereotyped behaviour score (albino mice [4]; 240 min, mouse 4): 0
Mean Score (albino mice [4]): 4.75
Total Score (albino mice [4]; mouse 1): 6
Total Score (albino mice [4]; mouse 2): 6
Total Score (albino mice [4]; mouse 3): 4
Total Score (albino mice [4]; mouse 4): 3
stereotyped behaviour activity (albino mice [4]): active
inhibition at 10 µg/mL (HSV-1 (Herpes Simplex); 10 μg/ml): 50%
inhibition at 25 µg/mL (HSV-1 (Herpes Simplex)): 40%
inhibition at 50 µg/mL (HSV-1 (Herpes Simplex)): 96%
stereotyped behaviour score (albino mice [5]; 45 min, mouse 1): 1
stereotyped behaviour score (albino mice [5]; 45 min, mouse 2): 2
stereotyped behaviour score (albino mice [5]; 135 min, mouse 3): 0
stereotyped behaviour score (albino mice [5]; 135 min, mouse 4): 0
MNTC [2]: 50 µg/mL
